Source: patent US20210198365A1, “COMBINATION PRODUCT FOR THE TREATMENT OF CANCER” (Debiopharm International S.A., priority 2017, published 2021)

Assays:
[1] = system: MBT-2 bladder cancer; test: Subcutaneous MBT-2 mouse bladder cancer syngeneic model; assay type: in vivo; conditions: anti-PD-L1 5 mg/kg i.p. bi-weekly; Debio 1143 100 mg/kg p.o. QD1-5; alone or combined, 3 weeks
Method: FIG. 3: Anti-tumor activity of Debio 1143, anti-PD-L1 antibody, and their combination in the subcutaneous MBT-2 mouse bladder cancer syngeneic model.
The anti-tumor activity of an anti-PD-L1 antibody (5 mg/kg BIW i.p.; clone 10F.9G2, BioXcell) was tested either alone or in combination with Debio 1143 (100 mg/kg QD1-5 p.o.) in MBT-2 immunocompetent syngeneic mouse model of bladder cancer in C3H/HeNCrl mice over 3 weeks (see, for example, Shimazui et al., 2013. Int J Oncol. 42(2):543-8). Each mouse was inoculated subcutaneously at the right flank region with MBT-2 tumor cells (2×10^5) in 0.1 ml of PBS for tumor development. The treatments were started when the mean tumor size reached 101 mm^3 (n=8/group).

[2] = system: human T cells (PBMCs); test: Ex vivo T-cell activation in human PBMCs upon CD3/CD28 stimulation; assay type: cell-based; conditions: 10 μM Debio 1143 added to anti-CD3/CD28 stimulation, 24 hours, cytometric analysis
Method: FIG. 1: Ex vivo T-cell activation in human peripheral blood mononuclear cells (PBMCs) upon CD3/CD28 stimulation and Debio 1143 treatment. N=1 healthy donor; values represent means of triplicates±SD. To test the effect of Debio 1143 on activation of human T cells, PBMCs freshly isolated from healthy human donors were stimulated ex vivo with anti-CD3/CD28 antibodies for 24 in the presence of 10 μM Debio 1143, or control treatments without stimulation and Debio 1143 incubation.

Q: CN[C@@H](C)C(=O)N[C@H]1CN(C(=O)CC(C)C)CC[C@H]2CC[C@@H](C(=O)NC(c3ccccc3)c3ccccc3)N2C1=O [Debio 1143, (5S,8S,10aR)-N-benzhydryl-5-((S)-2-(methylamino)propanamido)-3-(3-methylbutanoyl)-6-oxodecahydropyrrolo[1,2-a][1,5]diazocine-8-carboxamide] was tested. Which anti-tumor activity [1] did it give?
A: weak anti-tumor activity

Q: And the “T cell activation (percentage of IFNγ+ CD4+ and IFNγ+ CD8+ T-cells)” value [2]?
A: significant increase in T cell activation
